Data as given in ChEMBL document CHEMBL5465560, “Selectivity Literature for EUbOPEN Chemogenomic Library” (2024).

Columns and labels:
[1] = molecular target: T1, Calcium/calmodulin-dependent protein kinase type IV (Homo sapiens) (UniProt Q16566); test: Selectivity interaction (Kinase panel (KiNativ target engagement assay in Jurkat cells)) EUB0001635a CAMK4; type: cell-based; conditions: Selectivity number of off-targets 0.0, Selectivity number of targets 233.0, Source Knowledge https://www.sciencedirect.com/science/article/pii/S2451945619300674?via%3Dihub, at 1 µM
T1 sequence (whole entry): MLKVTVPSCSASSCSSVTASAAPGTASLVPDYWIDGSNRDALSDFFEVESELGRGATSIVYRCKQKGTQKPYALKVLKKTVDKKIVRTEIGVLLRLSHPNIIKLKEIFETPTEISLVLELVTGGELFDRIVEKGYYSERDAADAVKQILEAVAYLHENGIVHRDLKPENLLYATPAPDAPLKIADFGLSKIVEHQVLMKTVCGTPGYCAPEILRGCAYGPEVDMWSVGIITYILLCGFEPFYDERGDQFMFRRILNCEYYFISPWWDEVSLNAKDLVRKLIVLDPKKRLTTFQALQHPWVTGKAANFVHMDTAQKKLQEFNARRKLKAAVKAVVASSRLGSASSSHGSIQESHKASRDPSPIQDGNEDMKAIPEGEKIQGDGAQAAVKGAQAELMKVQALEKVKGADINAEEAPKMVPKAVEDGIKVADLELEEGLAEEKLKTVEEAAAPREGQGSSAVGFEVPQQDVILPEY

[2] = molecular target: Rho-associated protein kinase 2 (Homo sapiens, UniProt O75116); test: Selectivity interaction (KinomeScan (DiscoverX)) EUB0000045b ROCK2
Chain of Rho-associated protein kinase 2 (O75116 whole entry, looked up): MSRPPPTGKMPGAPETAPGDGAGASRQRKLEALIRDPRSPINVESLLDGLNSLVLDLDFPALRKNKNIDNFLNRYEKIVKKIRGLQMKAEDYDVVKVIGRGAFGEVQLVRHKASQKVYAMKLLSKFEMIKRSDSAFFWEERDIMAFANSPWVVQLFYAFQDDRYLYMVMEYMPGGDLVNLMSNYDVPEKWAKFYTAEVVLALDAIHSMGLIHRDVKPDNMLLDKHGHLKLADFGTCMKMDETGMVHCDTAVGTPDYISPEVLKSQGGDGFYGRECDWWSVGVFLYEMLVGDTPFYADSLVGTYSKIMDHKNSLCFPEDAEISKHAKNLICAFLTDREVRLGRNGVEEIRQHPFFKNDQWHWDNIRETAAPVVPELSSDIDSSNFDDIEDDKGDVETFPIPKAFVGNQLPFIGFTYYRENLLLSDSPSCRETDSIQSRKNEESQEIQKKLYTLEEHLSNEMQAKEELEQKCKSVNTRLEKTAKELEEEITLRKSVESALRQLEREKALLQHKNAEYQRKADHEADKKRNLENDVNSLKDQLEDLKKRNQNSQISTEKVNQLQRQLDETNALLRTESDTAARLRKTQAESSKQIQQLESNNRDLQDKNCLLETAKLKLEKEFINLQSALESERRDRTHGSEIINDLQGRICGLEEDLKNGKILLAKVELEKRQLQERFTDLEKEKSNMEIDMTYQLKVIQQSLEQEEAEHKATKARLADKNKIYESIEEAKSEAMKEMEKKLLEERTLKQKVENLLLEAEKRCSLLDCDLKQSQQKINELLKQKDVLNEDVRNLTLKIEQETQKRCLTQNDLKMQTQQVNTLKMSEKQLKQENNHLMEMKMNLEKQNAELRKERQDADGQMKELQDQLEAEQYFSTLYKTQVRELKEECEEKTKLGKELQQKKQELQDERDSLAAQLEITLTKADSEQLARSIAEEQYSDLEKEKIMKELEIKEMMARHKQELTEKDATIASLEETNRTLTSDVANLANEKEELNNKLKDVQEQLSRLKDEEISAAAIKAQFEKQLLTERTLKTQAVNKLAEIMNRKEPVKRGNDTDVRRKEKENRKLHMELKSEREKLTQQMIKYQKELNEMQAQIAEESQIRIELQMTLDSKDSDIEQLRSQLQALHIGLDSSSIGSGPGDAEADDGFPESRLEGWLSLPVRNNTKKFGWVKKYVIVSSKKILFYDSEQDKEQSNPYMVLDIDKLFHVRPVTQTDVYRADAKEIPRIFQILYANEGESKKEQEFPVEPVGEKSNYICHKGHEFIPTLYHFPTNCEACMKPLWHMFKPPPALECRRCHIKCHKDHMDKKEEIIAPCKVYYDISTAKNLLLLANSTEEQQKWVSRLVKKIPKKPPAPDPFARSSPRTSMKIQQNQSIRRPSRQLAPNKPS

[3] = molecular target: Bone morphogenetic protein receptor type-1A (Homo sapiens, UniProt P36894); test: Selectivity interaction (LanthaScreen Eu Kinase Binding Assay) EUB0001632a BMPR1A; conditions: at 10 µM
[4] = molecular target: Phosphatidylinositol 4,5-bisphosphate 3-kinase catalytic subunit alpha isoform (Homo sapiens) (UniProt P42336); test: Selectivity interaction (Adapta Assay) EUB0001632a PIK3CA; conditions: at 10 µM
Chain of Phosphatidylinositol 4,5-bisphosphate 3-kinase catalytic subunit alpha isoform (Homo sapiens) (P42336 whole entry, canonical isoform): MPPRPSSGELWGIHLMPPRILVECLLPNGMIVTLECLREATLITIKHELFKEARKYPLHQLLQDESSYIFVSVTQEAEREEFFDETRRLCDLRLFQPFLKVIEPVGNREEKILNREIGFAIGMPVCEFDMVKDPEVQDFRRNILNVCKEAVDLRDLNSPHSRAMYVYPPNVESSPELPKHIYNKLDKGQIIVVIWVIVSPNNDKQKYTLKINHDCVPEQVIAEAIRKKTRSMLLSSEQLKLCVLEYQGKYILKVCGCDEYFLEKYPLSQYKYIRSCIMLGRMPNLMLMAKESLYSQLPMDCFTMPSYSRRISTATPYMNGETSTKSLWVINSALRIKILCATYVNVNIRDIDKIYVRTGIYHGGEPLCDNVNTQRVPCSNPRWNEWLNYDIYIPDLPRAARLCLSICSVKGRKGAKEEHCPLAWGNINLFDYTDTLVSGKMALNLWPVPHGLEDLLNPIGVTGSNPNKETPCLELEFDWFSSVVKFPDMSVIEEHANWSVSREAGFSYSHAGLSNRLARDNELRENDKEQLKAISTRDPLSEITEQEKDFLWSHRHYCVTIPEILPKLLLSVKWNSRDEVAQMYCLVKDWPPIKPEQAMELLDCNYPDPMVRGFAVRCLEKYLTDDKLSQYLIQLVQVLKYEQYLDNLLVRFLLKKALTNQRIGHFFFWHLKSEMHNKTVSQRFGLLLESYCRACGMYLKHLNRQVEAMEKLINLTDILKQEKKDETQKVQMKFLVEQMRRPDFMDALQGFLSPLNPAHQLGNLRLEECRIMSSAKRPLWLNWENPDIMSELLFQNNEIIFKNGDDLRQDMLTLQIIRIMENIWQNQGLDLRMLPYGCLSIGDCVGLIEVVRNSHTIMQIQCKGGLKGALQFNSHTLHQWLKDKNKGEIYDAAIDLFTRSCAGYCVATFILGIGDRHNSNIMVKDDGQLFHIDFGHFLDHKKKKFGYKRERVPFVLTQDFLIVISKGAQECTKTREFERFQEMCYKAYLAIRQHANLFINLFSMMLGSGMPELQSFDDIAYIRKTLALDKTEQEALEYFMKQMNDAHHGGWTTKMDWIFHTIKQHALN

[5] = molecular target: T2, Serine/threonine-protein kinase 3 (Homo sapiens) (UniProt Q13188); test: Selectivity interaction (Kinase panel (Z-LYTE Assay)) EUB0001632a STK3; conditions: at 10 µM
T2 sequence (whole entry): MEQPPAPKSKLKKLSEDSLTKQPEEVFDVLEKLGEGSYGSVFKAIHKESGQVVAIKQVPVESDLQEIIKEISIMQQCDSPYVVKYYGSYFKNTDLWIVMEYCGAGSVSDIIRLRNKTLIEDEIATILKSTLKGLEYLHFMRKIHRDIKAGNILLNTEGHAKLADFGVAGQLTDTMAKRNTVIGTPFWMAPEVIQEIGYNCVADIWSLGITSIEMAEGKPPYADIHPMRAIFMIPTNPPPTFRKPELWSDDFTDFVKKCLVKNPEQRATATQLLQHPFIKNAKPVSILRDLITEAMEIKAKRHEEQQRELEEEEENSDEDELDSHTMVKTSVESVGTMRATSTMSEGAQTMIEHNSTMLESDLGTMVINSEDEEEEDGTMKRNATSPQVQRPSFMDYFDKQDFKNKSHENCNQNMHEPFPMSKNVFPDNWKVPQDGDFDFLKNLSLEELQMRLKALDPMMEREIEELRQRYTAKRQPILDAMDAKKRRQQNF

[6] = molecular target: Bromodomain and WD repeat-containing protein 1 (Homo sapiens) (UniProt Q9NSI6); test: Selectivity interaction (Bromodomain panel (DSF asssay)) EUB0000270b BRWD1
[7] = molecular target: Type-2 angiotensin II receptor (Homo sapiens) (UniProt P50052); test: Selectivity interaction (Eurofins CEREP Diversity Profile (receptors and ion channels)) EUB0000279b AGTR2; conditions: at 10 µM
Chain of Type-2 angiotensin II receptor (Homo sapiens) (P50052 whole entry): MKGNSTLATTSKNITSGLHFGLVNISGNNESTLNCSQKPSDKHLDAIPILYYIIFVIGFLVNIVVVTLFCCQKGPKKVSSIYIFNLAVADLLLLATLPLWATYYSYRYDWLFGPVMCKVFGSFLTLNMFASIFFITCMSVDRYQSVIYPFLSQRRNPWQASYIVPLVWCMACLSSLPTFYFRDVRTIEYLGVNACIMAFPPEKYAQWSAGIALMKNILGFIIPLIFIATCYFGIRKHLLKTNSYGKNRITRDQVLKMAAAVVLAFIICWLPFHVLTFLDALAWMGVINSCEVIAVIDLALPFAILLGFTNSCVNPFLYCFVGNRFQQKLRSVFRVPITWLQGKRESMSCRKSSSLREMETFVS

[8] = molecular target: T3, Rhodopsin kinase GRK1 (Homo sapiens) (UniProt Q15835); test: Selectivity interaction (KinomeScan (DiscoverX)) EUB0001049a GRK1; conditions: at 1 µM
T3 sequence (whole entry): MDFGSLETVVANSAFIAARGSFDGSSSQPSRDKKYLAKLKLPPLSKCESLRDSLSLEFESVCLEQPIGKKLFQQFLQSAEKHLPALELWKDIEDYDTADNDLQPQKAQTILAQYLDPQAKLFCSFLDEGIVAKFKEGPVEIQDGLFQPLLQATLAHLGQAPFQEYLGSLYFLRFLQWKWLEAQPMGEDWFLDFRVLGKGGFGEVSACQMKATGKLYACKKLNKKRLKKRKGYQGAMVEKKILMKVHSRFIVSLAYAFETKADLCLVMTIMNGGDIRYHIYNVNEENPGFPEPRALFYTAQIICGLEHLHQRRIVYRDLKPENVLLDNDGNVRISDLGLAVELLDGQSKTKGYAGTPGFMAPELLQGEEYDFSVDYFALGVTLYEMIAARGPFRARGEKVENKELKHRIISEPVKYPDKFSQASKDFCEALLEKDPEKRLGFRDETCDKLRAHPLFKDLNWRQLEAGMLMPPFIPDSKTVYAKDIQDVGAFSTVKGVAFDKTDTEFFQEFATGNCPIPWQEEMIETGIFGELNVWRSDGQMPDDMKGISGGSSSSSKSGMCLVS

[9] = molecular target: Tyrosine-protein kinase BTK (Homo sapiens, UniProt Q06187); test: Selectivity interaction (ActivX KiNativ screen (ex vivo kinase selectivity in human PBMCs)) EUB0001619a BTK; type: cell-based; conditions: PBMC, at 1 µM
Chain of Tyrosine-protein kinase BTK (Q06187 whole entry): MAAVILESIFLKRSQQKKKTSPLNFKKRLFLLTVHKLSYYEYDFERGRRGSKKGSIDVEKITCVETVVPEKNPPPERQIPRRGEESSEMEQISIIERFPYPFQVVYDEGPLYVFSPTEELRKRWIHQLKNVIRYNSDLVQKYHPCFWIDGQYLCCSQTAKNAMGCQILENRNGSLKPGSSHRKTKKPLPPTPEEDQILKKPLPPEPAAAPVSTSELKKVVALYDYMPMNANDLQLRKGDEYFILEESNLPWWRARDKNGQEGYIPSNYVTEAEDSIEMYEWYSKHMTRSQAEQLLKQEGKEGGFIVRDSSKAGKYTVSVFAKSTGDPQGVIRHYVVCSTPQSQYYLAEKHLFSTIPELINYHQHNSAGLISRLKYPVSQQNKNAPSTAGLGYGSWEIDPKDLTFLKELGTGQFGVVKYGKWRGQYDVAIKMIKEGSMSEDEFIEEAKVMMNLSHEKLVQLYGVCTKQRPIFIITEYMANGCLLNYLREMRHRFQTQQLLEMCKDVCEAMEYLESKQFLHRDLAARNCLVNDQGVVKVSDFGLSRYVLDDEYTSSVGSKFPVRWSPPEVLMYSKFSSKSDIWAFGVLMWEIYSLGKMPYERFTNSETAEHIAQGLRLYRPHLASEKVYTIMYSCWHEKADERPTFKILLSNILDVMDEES

[10] = molecular target: Cyclin-dependent kinase 1 (Homo sapiens) (UniProt P06493); test: Selectivity interaction (ActivX KiNativ screen (ex vivo kinase selectivity in human PBMCs)) EUB0001619a CDK1; type: cell-based; conditions: PBMC, at 1 µM
[11] = molecular target: Death-associated protein kinase 3 (Homo sapiens) (UniProt O43293); test: Selectivity interaction (SelectScreen profiling (Invitrogen)) EUB0000607a DAPK3; conditions: at 2 µM
[12] = molecular target: SRSF protein kinase 1 (Homo sapiens, UniProt Q96SB4); test: Selectivity interaction (ActivX KiNativ screen (kinase selectivity in THP-1 cell lysates)) EUB0000639a SRPK1; type: subcellular; conditions: lysate, at 5 µM
Chain of SRSF protein kinase 1 (Q96SB4 whole entry): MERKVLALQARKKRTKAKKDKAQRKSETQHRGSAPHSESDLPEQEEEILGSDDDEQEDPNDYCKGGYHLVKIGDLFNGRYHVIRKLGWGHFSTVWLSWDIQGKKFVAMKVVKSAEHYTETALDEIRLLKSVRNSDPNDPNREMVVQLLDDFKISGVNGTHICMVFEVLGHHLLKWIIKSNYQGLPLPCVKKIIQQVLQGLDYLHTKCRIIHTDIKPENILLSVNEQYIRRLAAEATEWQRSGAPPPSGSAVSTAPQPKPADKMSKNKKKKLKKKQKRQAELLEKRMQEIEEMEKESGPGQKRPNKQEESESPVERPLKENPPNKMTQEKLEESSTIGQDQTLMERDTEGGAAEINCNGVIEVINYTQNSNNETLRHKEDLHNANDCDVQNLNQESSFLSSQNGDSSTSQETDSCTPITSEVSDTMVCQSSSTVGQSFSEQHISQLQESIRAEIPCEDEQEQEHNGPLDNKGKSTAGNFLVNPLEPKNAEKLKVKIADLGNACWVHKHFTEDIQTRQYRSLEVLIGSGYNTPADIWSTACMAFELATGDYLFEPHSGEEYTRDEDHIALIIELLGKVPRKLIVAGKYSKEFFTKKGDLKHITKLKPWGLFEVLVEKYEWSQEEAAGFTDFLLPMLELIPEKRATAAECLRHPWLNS

[13] = molecular target: Ribosomal protein S6 kinase alpha-1 (Homo sapiens, UniProt Q15418); conditions: at 10 µM
Chain of Ribosomal protein S6 kinase alpha-1 (Q15418 whole entry): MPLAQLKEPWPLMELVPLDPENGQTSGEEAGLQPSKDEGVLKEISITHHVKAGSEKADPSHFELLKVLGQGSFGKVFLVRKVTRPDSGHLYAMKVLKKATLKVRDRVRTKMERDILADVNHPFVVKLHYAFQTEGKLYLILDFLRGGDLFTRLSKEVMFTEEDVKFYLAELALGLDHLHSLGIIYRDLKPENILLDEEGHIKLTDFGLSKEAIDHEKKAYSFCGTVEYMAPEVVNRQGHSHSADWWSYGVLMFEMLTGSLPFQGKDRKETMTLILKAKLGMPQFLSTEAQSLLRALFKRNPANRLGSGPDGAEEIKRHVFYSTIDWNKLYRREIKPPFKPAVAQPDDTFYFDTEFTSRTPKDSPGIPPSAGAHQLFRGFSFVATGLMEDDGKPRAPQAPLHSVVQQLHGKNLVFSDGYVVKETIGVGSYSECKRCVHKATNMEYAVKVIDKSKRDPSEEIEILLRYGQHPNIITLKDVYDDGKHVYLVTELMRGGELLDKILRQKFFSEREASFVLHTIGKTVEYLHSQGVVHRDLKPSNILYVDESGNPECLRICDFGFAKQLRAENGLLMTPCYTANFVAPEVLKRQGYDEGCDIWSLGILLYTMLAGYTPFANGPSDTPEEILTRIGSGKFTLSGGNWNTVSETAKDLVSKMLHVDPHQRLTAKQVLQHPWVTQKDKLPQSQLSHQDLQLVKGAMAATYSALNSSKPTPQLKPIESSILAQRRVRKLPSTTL

[14] = molecular target: Cyclin-dependent kinase 16 (Homo sapiens) (UniProt Q00536); test: Selectivity interaction (KinomeScan (DiscoverX)) EUB0000092b CDK16; conditions: at 10 µM

For `C=CC(=O)Nc1ccc(C(=O)Nc2[nH]nc3c2CN(C(=O)N[C@H](CN(C)C)c2ccccc2)C3(C)C)cc1`, the % of engagement [1] was -6.4%.

`C=CC(=O)Nc1cc(-n2c(=O)ccc3cnc4ccc(-c5ccc(NS(C)(=O)=O)cc5)cc4c32)ccc1C` showed a % of control ([2]; at 1 µM) of 87% and a % of control ([2]; at 10 µM) of 79%.

With `Cn1cc(-n2cnc3c(NCc4nc5cc(Cl)c(Cl)cc5[nH]4)nc(N4CCOCC4)nc32)cn1` the % of inhibition [3] was -8.67%, the % of inhibition [4] was 37.1% and the % of control [5] was 0.418%.

`Cc1cc(CN)cc(C)c1-c1ncn(C)c1-c1cncn1C` gave a dTM [6] of -1.1 K.

`CC(=O)c1cc(-c2ccccc2OCC2CC2)c2ncccn12` was tested, and the % of control [7] was 106%.

Work on `COc1cc(Nc2nc(C)cc(-c3cnn4nc(OC)ccc34)n2)cc(C(F)(F)F)c1` yielded a % of control [8] of 75%.

Compound `N#Cc1cccc(-c2c[nH]c3ncnc(N4CCOCC4)c23)c1` has a % of inhibition [9] of 13% and a % of inhibition [10] of 13%.

`CNC(=O)Nc1ccc(-c2nc(N3CC4CCC(C3)O4)c3cnn(C4CCC5(CC4)OCCO5)c3n2)cc1` gave a % of inhibition [11] of 2%.

In the case of `CC[C@@H]1[C@H](F)C(=O)N[C@@H]1COc1nccc2cc(C(N)=O)c(OC)cc12` [ZIMLOVISERTIB], the % of inhibition [12] is reported as -1.1%.

Compound `CCN(CC)CCCCNc1ncc2cc(-c3cc(OC)cc(OC)c3)c(NC(=O)NC(C)(C)C)nc2n1` has a % of control [13] of 100%.

Work on `CCC(=O)N1CCN(c2ccc(-n3c(=O)ccc4cnc5ccc(-c6cnc7ccccc7c6)cc5c43)cc2C(F)(F)F)CC1` yielded a % of control [14] of 91%.
